Data reported in the NIST ThermoML archive (doi:10.1016/j.jct.2008.06.008).
“And” between values parts separate entries of the source, which are not always exact repeats. Equal entries are not always repeated. ± gives the expanded uncertainty stated by the source.

Experiment: molar heat capacity at constant pressure
Details: 298.15 K; 101.33 kPa; Liquid; Large sample (1 g) DSC

| Structure (SMILES) | molar heat capacity at constant pressure |
| --- | --- |
| [2H]C([2H])([2H])C(=O)C([2H])([2H])[2H] [(D6)-2-propanone] | 134.94 ± 2.7 J/K/mol and 133.6 ± 2.7 J/K/mol |
| [2H]C([2H])([2H])S(=O)C([2H])([2H])[2H] [(methyl sulfoxide)-d6] | 165.76 ± 3.3 J/K/mol and 163.87 ± 3.3 J/K/mol |
| [2H]C(=O)N(C([2H])([2H])[2H])C([2H])([2H])[2H] [N,N-dimethylformamide-d7] | 160.5 ± 3.2 J/K/mol and 159.47 ± 3.2 J/K/mol |
| CC(C)=O [acetone] | 122.74 ± 2.5 J/K/mol and 120.73 ± 2.4 J/K/mol |
| [2H]C([2H])([2H])C#N [acetonitrile-d3] | 95.74 ± 1.9 J/K/mol and 95.02 ± 1.9 J/K/mol |
| CC#N [acetonitrile] | 89.62 ± 1.8 J/K/mol and 88.57 ± 1.8 J/K/mol |
| [2H]c1c([2H])c([2H])c([2H])c([2H])c1[2H] [benzene-d6] | 152.18 ± 3 J/K/mol and 149.82 ± 3 J/K/mol |
| c1ccccc1 [benzene] | 133.82 ± 2.7 J/K/mol and 132.11 ± 2.6 J/K/mol |
| [2H]C(Cl)(Cl)Cl [chloroform-d] | 114.94 ± 2.3 J/K/mol and 111.98 ± 2.2 J/K/mol |
| [2H]C1([2H])C([2H])([2H])C([2H])([2H])C([2H])([2H])C([2H])([2H])C1([2H])[2H] [cyclohexane-d12] | 185.6 ± 3.7 J/K/mol and 182.57 ± 3.6 J/K/mol |
| C1CCCCC1 [cyclohexane] | 154.34 ± 3.1 J/K/mol and 150.73 ± 3 J/K/mol |
| [2H]C([2H])(Cl)Cl [dichloromethane-d2] | 103.08 ± 2.1 J/K/mol and 101.49 ± 2 J/K/mol |
| ClCCl [dichloromethane] | 97.97 ± 2 J/K/mol and 95.61 ± 1.9 J/K/mol |
| C[S+](C)[O-] [dimethyl sulfoxide] | 150.74 ± 3 J/K/mol and 149.05 ± 3 J/K/mol |
| CN(C)C=O [dimethylformamide] | 145.78 ± 2.9 J/K/mol and 144.02 ± 2.9 J/K/mol |
| [2H]C([2H])([2H])O [methanol-d3] | 86.07 ± 1.7 J/K/mol and 84.91 ± 1.7 J/K/mol |
| [2H]OC([2H])([2H])[2H] [methanol-d4] | 89.03 ± 1.8 J/K/mol and 87.75 ± 1.8 J/K/mol |
| CO [methanol] | 80.58 ± 1.6 J/K/mol and 79.07 ± 1.6 J/K/mol |
| [2H]c1c([2H])c([2H])c(C([2H])([2H])[2H])c([2H])c1[2H] [toluene-d8] | 176.77 ± 3.5 J/K/mol and 174.28 ± 3.5 J/K/mol |
| Cc1ccccc1 [toluene] | 154.75 ± 3.1 J/K/mol and 152.53 ± 3 J/K/mol |
| ClC(Cl)Cl [trichloromethane] | 112.71 ± 2.2 J/K/mol and 110.74 ± 2.2 J/K/mol |
